Assay results taken from US9827187B2, “Filaggrin gene expression promoter” (Shiseido Company, Ltd., priority 2012, dated 2017).

Columns and labels:
filaggrin gene [1] = experiment: Screening pharmaceutical agents that promote filaggrin gene expression (QPCR, cultured keratinocytes); assay type: cell-based, human; conditions: candidate agent at 1% in medium; normal adult skin-derived keratinocytes; 18 hours after addition; relative to RPLP0; FIG. 3
Procedure: Commercially available normal adult skin-derived keratinocytes (Cellntec AG) were disseminated in a culture plate to a concentration of 3×10^3 cells/cm^2 followed by culturing in epithelial cell medium (CnT-BM.1, Cellntec AG) at 37° in a 5% CO2 atmosphere. Three days later, the medium was replaced with medium containing each of the candidate pharmaceutical agents at a concentration of 1% followed by continuing culturing at 37° C. and 5% CO2 and collecting the cells after 2 hours and after 18 hours. The candidate pharmaceutical agents added to the medium consisted of zanthoxylum extract (Maruzen Pharmaceuticals Co., Ltd.), geranium oil (Koei Kogyo Co., Ltd.), cypress oil (Bioland Co., Ltd.), rose oil (Bioland Co., Ltd.), galvanum oil (Bioland Co., Ltd.), pepper oil (Bioland Co., Ltd.), basil oil (Bioland Co., Ltd.), methyl-o-toluate (Aldrich Inc.), methyl anthranilate (Tokyo Chemical Industry Co., Ltd.), dimethyl anthranilate (Tokyo Chemical Industry Co., Ltd.), clove bud caryophyllata oil (Bioland Co., Ltd.) and arnica oil (Koei Kogyo Co., Ltd.). The absence of addition of pharmaceutical agent was used as a negative control, and cortisol (concentration in medium: 50 ng/mL) was used as a positive control.
RNA was extracted from the collected cells using a commercially available RNA extraction-cDNA synthesis kit (FastLane Cell cDNA Kit, Qiagen N.V.) to prepare cDNA. Filaggrin expression levels were measured by quantitative PCR (QPCR) using this cDNA. Expression levels of clock genes PER3 and BMAL1 were measured simultaneously and compared with the expression rhythm of filaggrin gene. A commercially available QPCR reagent kit (Brilliant III Ultra-Fast SYBR Green QPCR Kit, Agilent Technologies Inc.) and QPCR measurement system (MX-3000P Real-time Quantitative PCR System, Agilent Technologies Inc.) were used for QPCR. The expression level of a housekeeping gene in the form of RPLP0 gene was quantified for use as an internal standard, and the relative expression level with respect to PLP0 was calculated and used as the expression level of filaggrin gene. […]

filaggrin gene [2] = experiment: Filaggrin gene expression promotion by 1PP, zanthoxylum extract and their combination (QPCR, cultured keratinocytes); assay type: cell-based, human; conditions: agent at 0.1% in medium (combination: 0.1% each); keratinocytes collected after 18 hours; versus no-agent control; FIG. 4
Procedure: Commercially available normal adult skin-derived keratinocytes (Cellntec AG) were disseminated in a culture plate to a concentration of 3×10^3 cells/cm^2 followed by culturing in epithelial cell medium (CnT-BM.1, Cellntec AG) at 37° in a 5% CO2 atmosphere. […] The absence of addition of pharmaceutical agent was used as a control.
RNA was extracted from the collected cells using a commercially available RNA extraction-cDNA synthesis kit (FastLane Cell cDNA Kit, Qiagen N.V.) to prepare cDNA. Filaggrin expression levels were measured by quantitative PCR (QPCR) using this cDNA. A commercially available QPCR reagent kit (Brilliant III Ultra-Fast SYBR Green QPCR Kit, Agilent Technologies Inc.) and QPCR measurement system (MX-3000P Real-time Quantitative PCR System, Agilent Technologies Inc.) were used for QPCR. The expression level of a housekeeping gene in the form of RPLP0 gene was quantified for use as an internal standard, and the relative expression level with respect to PLP0 was calculated and used as the expression level of filaggrin gene. The primer sequences shown in Table 1 were used for the sequences of the PCR primers.

SMILES | expression of filaggrin gene after 18 hours in comparison with the negative control (filaggrin gene [1]) | effect of promoting filaggrin gene expression (filaggrin gene [2])
COC(=O)c1ccccc1C [methyl-o-toluate, methyl 2-methylbenzoate] | promote expression of filaggrin gene | –
CNc1ccccc1C(=O)OC [dimethyl anthranilate, 2-methyl aminomethylbenzoate] | promote expression of filaggrin gene | –
O=C(O)CCN1CCCCC1 [1PP, 3-(1′-piperidine)propionic acid] | – | effect of promoting filaggrin gene expression that was comparable to that of zanthoxylum extract
COC(=O)c1ccccc1N [methyl anthranilate, methyl 2-aminobenzoate] | promote expression of filaggrin gene | –
